Literature values in US8349821B2, “Stanol composition and the use thereof” (Raisio Nutrition Ltd., priority 1996, dated 2013).

Experiments:
male subjects = conditions: for Absorption rate, on average: intestinal perfusion technique, ten male subjects
healthy humans = conditions: in vivo

CC(C)[C@H](C)CC[C@@H](C)[C@H]1CC[C@H]2[C@@H]3CC=C4C[C@@H](O)CC[C@]4(C)[C@H]3CC[C@]12C [campesterol]
Dietary campesterol absorbed (male subjects; in vivo): up to 10% | Absorption rate, on average (male subjects): 9.6%

CC[C@H](CC[C@@H](C)[C@H]1CC[C@H]2[C@@H]3CC[C@H]4C[C@@H](O)CC[C@]4(C)[C@H]3CC[C@]12C)C(C)C [sitostanol]
Absorbability (in words) (healthy humans): practically unabsorbable

CC[C@H](CC[C@@H](C)[C@H]1CC[C@H]2[C@@H]3CC=C4C[C@@H](O)CC[C@]4(C)[C@H]3CC[C@]12C)C(C)C [sitosterol]
Absorption rate, on average (male subjects): 4.2% | Amount that can be absorbed (healthy humans): < 5%

CC[C@H](/C=C/[C@@H](C)[C@H]1CC[C@H]2[C@@H]3CC=C4C[C@@H](O)CC[C@]4(C)[C@H]3CC[C@]12C)C(C)C [stigmasterol]
Absorption rate, on average (male subjects): 4.8%
